Test results taken from patent CN111743889A, “赤麻木脂素的新用途” (Shanghai Institute of Materia Medica of CAS, priority 2019, dated 2020).

Columns and labels:
Assay type in all cases: cell-based
[1] = test system: STAT3; test: Western blot, STAT3 phosphorylation; conditions: IL-6 induced, 10 min; compound 1, 5, 10, 20 μM, 1 h
[2] = test system: STAT1; test: Western blot, STAT1 phosphorylation; conditions: IFN-γ induced, 10 min; compound 1, 5, 10, 20 μM, 1 h
[3] = target: T1, PDGFRα (Homo sapiens, UniProt P16234); test: Western blot, PDGFRα phosphorylation; conditions: same concentrations (1, 5, 10, 20 μM), 1 h
T1 construct: 将细胞以每孔15万的量接种在24孔板内; endogenous in cells

[4] = target: T2, JAK2 (Homo sapiens, UniProt O60674); test: Western blot, JAK2 phosphorylation; conditions: IL-6, IFN-γ and IFN-α induced, 10 min; compound 1, 5, 10, 20 μM, 1 h
T2 construct: 将细胞以每孔15万的量接种在24孔板内; endogenous in cells; HepG2 and HEK293 are the only lines named

[5] = test system: NF-κB signalling pathway [NF-κB信号通路]; test: NF-κB luciferase reporter gene assay (TNF-α induced); conditions: HEK293 cells with reporter; TNF-α 10 ng/ml induced; compound 1-40 μM, added 1 h before stimulus; read 5 h after
[6] = target: T3, TYK2 (Homo sapiens, UniProt P29597); test: Western blot, TYK2 phosphorylation; conditions: IL-6, IFN-γ and IFN-α induced, 10 min; compound 1, 5, 10, 20 μM, 1 h
T3 construct: 将细胞以每孔15万的量接种在24孔板内; endogenous in cells; HepG2 and HEK293 are the only lines named

[7] = test system: IκBα; test: Western blot, IκBα phosphorylation; conditions: TNF-α induced, 10 min; compound 1, 5, 10, 20 μM, 1 h
[8] = test system: IKK-α/β; test: Western blot, IKK-α/β phosphorylation; conditions: TNF-α induced, 10 min; compound 1, 5, 10, 20 μM, 1 h
[9] = target: T4, IGF1R (Homo sapiens, UniProt P08069); test: Western blot, IGF1R phosphorylation; conditions: same concentrations (1, 5, 10, 20 μM), 1 h
T4 construct: 将细胞以每孔15万的量接种在24孔板内; endogenous in cells

[10] = test system: STAT3 transcription factor [STAT3转录因子]; test: STAT3 luciferase reporter gene assay (IL-6 induced); conditions: HepG2 cells stably transfected with reporter; IL-6 10 ng/ml induced; compound 1-40 μM, added 1 h before stimulus; read 5 h after
[11] = target: T5, JAK1 (Homo sapiens, UniProt P23458); test: Western blot, JAK1 phosphorylation; conditions: IL-6, IFN-γ and IFN-α induced, 10 min; compound 1, 5, 10, 20 μM, 1 h
T5 construct: 将细胞以每孔15万的量接种在24孔板内; endogenous in cells; HepG2 and HEK293 are the only lines named

[12] = target: T6, PDGFRβ (Homo sapiens, UniProt P09619); test: Western blot, PDGFRβ phosphorylation; conditions: same concentrations (1, 5, 10, 20 μM), 1 h
T6 construct: 将细胞以每孔15万的量接种在24孔板内; endogenous in cells

[13] = target: T7, EGFR (Homo sapiens, UniProt P00533); test: Western blot, EGFR phosphorylation; conditions: same concentrations (1, 5, 10, 20 μM), 1 h
T7 construct: 将细胞以每孔15万的量接种在24孔板内; endogenous in cells

[14] = test system: STAT1 transcription factor [STAT1转录因子]; test: STAT1 luciferase reporter gene assay (IFN-γ induced); conditions: HepG2 cells stably transfected with reporter; IFN-γ 10 ng/ml induced; compound 1-40 μM, added 1 h before stimulus; read 5 h after

T3 sequence (P29597 whole entry): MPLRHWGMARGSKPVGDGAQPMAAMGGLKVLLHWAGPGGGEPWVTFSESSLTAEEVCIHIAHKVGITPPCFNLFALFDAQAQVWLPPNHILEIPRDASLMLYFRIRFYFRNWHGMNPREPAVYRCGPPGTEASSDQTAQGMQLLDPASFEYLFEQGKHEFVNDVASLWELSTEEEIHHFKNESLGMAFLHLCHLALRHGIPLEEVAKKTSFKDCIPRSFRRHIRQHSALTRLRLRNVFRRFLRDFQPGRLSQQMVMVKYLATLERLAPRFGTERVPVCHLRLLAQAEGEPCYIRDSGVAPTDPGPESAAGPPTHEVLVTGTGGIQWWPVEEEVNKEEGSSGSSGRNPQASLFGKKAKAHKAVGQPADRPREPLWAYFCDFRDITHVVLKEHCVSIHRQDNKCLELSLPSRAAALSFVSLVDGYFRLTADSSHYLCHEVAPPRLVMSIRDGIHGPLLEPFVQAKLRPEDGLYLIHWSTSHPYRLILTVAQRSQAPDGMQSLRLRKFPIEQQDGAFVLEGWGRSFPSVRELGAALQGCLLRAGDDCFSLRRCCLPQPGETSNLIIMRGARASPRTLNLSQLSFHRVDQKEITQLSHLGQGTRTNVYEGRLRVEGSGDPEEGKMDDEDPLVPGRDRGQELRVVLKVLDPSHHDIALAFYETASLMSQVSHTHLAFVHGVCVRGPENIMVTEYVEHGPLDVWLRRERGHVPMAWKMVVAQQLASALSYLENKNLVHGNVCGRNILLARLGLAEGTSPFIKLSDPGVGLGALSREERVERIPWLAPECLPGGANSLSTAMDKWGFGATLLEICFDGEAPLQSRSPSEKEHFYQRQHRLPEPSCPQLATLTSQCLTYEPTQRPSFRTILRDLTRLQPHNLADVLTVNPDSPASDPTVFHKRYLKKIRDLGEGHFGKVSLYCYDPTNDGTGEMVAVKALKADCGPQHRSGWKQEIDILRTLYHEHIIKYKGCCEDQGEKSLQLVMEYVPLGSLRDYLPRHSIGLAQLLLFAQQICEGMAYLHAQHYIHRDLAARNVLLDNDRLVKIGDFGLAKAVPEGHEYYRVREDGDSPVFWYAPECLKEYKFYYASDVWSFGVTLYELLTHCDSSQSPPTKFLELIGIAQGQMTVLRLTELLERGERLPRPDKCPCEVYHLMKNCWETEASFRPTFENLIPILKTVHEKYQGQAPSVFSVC
T7 sequence (P00533 25-1210): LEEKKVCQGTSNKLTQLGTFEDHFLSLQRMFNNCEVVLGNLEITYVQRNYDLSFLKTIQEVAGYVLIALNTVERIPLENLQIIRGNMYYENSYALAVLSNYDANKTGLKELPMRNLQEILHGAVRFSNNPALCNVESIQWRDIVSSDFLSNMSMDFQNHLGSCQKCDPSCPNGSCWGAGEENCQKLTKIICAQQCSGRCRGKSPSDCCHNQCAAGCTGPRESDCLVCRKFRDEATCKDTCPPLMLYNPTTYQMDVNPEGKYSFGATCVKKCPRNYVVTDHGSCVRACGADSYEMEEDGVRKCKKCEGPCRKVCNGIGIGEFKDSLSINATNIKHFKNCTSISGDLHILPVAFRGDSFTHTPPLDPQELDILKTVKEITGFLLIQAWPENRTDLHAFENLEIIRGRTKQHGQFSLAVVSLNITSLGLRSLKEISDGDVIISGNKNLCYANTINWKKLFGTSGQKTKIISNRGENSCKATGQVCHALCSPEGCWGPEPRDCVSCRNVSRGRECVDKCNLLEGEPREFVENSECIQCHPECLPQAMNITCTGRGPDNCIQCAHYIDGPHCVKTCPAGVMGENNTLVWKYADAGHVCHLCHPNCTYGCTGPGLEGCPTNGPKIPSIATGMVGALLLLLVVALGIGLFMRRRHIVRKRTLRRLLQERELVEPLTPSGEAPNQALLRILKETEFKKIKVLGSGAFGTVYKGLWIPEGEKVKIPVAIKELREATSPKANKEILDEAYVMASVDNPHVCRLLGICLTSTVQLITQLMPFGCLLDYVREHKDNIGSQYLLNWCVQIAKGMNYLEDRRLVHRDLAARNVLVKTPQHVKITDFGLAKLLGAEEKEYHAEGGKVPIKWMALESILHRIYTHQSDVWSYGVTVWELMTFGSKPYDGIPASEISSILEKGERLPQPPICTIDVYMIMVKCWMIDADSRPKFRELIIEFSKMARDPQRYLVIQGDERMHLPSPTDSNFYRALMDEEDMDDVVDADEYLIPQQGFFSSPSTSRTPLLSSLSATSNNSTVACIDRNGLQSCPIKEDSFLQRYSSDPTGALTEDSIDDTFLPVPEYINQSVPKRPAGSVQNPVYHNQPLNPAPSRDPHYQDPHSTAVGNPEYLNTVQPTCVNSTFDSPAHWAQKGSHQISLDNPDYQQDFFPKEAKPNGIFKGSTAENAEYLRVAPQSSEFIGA
T5 sequence (P23458 whole entry): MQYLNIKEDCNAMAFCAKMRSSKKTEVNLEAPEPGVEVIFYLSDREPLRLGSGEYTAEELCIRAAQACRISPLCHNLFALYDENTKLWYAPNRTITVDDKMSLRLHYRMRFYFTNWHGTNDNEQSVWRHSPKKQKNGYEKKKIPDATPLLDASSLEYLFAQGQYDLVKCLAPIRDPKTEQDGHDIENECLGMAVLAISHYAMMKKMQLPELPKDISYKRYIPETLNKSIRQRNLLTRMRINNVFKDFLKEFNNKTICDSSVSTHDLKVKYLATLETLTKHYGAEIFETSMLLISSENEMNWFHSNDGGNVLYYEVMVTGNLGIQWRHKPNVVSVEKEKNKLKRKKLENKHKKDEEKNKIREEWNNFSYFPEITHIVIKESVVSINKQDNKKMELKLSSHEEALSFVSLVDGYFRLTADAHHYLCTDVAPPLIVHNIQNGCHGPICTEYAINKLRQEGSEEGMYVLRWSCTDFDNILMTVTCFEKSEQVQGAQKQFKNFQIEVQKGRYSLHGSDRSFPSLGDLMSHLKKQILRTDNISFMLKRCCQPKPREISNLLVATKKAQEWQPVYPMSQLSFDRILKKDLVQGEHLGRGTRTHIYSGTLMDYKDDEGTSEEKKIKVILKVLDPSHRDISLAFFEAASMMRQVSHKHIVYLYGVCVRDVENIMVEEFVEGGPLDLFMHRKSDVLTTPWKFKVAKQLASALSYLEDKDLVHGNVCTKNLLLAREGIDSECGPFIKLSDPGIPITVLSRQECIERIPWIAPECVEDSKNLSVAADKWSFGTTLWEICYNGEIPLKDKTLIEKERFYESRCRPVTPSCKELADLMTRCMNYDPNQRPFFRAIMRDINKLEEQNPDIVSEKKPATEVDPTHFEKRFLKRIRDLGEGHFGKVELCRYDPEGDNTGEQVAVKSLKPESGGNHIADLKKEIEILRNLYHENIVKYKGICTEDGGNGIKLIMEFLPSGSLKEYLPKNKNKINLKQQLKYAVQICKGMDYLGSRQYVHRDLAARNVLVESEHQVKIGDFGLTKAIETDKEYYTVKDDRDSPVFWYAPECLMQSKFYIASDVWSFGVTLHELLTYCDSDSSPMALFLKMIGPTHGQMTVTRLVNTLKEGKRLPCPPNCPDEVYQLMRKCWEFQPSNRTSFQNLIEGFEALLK
T6 sequence (P09619 33-1106): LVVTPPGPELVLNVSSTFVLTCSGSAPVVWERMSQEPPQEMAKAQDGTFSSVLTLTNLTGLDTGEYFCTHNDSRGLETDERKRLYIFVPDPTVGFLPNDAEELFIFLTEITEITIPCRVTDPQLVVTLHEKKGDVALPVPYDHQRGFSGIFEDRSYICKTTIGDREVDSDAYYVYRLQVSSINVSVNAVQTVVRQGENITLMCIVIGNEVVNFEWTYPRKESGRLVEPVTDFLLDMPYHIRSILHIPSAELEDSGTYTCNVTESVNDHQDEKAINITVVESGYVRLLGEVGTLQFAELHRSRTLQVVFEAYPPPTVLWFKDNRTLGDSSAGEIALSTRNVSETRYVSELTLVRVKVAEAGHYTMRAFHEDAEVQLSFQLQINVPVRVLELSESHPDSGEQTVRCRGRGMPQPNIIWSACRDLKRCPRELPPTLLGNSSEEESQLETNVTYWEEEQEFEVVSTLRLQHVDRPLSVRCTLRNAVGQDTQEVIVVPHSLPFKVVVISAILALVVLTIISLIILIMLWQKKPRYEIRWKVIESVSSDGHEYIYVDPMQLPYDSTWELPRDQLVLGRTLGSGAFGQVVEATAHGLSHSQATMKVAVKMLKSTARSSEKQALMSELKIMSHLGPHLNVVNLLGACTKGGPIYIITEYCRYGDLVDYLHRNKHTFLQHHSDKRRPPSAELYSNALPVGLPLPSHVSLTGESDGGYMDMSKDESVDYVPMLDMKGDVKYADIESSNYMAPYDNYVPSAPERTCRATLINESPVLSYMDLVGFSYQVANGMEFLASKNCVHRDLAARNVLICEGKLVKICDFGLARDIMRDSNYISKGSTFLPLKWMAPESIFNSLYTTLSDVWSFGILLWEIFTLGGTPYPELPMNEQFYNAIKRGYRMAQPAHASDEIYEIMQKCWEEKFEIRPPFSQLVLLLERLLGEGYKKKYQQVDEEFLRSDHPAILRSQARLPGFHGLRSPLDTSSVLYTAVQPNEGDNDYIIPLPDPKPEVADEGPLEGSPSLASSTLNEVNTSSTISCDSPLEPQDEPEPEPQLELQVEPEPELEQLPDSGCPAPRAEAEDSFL

SMILES: COc1cc(C=CC(=O)OCCCc2cc(OC)c3c(c2)C(COC(=O)C=Cc2ccc(O)c(OC)c2)C(c2ccc(O)c(OC)c2)O3)ccc1O (centres unmarked) [赤麻木脂素, 3-(4-Hydroxy-3-methoxyphenyl)propenoic acid 3-[2,3-dihydro-2-(4-hydroxy-3-methoxyphenyl)-3-[[[3-(4-hydroxy-3-methoxyphenyl)-1-oxo-2-propenyl]oxy]methyl]-7-methoxybenzofuran-5-yl]propyl ester]
- inhibition of STAT3 phosphorylation [1]: 抑制
- inhibition of STAT1 phosphorylation [2]: 抑制
- effect on phosphorylation of other tyrosine kinases (PDGFRα) [3]: 没有抑制作用
- inhibition of JAK phosphorylation (p-JAK2) [4]: 抑制
- inhibition of NF-κB signalling pathway (NF-κB-dependent luciferase activity) [5]: 浓度依赖性的抑制
- inhibition of JAK phosphorylation (p-TYK2) [6]: 抑制
- inhibition of IκBα phosphorylation [7]: 抑制
- inhibition of IKK-α/β phosphorylation [8]: 抑制
- effect on phosphorylation of other tyrosine kinases (IGF1R) [9]: 没有抑制作用
- inhibition of transcriptional activity of STAT3 transcription factor (luciferase) [10]: 剂量依赖性的抑制
- inhibition of JAK phosphorylation (p-JAK1) [11]: 抑制
- effect on phosphorylation of other tyrosine kinases (PDGFRβ) [12]: 没有抑制作用
- effect on phosphorylation of other tyrosine kinases (EGFR) [13]: 没有抑制作用
- inhibition of transcriptional activity of STAT1 transcription factor (luciferase) [14]: 剂量依赖性的抑制
